Measured values from paper PMC10349806 (Nature Communications, 2023).
Values joined by “and” are separate entries in the source; they are usually repeats but may differ in a detail not shown here. Equal values may be shown once.

Tests used:
PfCRT variant F322A = biological target: T1, PfCRT variant F322A (Plasmodium falciparum, UniProt Q9N623, A220S/F322A/I356T/K76T/M74I/N326S/N75E/Q271E/R371I); experiment: CQ uptake assay, oocytes expressing F322A; assay type: cell-based
T1 sequence (Q9N623 1-424 M74I/N75E/K76T/A220S/Q271E/F322A/N326S/I356T/R371I): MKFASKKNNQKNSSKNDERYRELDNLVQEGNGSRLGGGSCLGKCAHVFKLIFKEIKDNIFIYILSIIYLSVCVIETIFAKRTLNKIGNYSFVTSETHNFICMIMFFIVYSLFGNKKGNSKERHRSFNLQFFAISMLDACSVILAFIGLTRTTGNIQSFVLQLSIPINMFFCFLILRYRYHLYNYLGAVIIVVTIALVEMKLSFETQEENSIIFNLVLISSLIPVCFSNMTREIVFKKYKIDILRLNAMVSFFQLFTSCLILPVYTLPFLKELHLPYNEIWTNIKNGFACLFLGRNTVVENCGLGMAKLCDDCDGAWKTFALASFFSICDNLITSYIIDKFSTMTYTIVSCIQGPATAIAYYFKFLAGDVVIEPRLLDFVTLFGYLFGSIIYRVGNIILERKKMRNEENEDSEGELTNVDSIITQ
Method: (§1) Site-directed mutagenesis of PfCRT^Dd2 was performed as described using the megaprimer method with overlap extension[21],[54]. The primer pairs used are listed in Supplementary Table 6. Please note that a codon-optimized and oocyte-adapted version of PfCRT^Dd2 was used[22] (Supplementary Fig. 16). The resulting DNA fragment was cloned into the SP64T expression vector and verified by sequencing.
(§2) Oocytes were obtained as described previously. Briefly, adult (>2 years old) female X. laevis frogs (NASCO) were anesthetized in a cooled solution of ethyl 3-amino benzoate methanesulfonate (0.1%, w/v), followed by a surgical removal of parts of the ovary. The ovary lobes were carefully dissected and small pieces of oocytes were incubated in Ca^2+-free ND96 buffer (96 mM NaCl, 2 mM KCl, 1 mM MgCl2 buffered with 5 mM HEPES/NaOH, pH 7.5) supplemented with collagenase D (0.1%, w/v; Roche), BSA (0.5%, w/v), and 9 mm Na2HPO4 at 18 °C for 14-16 h while gentle shaking. After incubation, the oocytes were carefully washed several times with ND96 buffer (96 mM NaCl, 2 mM KCl, 1.8 mM CaCl2, 1 mM MgCl2 buffered with 5 mM HEPES/NaOH, pH 7.5) supplemented with 100 mg l^−1 gentamycin). Defolliculated and healthy-looking stage V-VI oocytes were manually selected for RNA microinjection. The RNA was generated as following: The codon-optimized sequences of PfCRT variants were cloned into the pSP64T expression vector. After vector linearization using the restriction endonucleases BamHI or SalI (New England Biolabs), transcription was performed using the in vitro SP6 mMessage mMachine Kit (Ambion)[34]. The obtained RNA was kept at −80 °C and diluted with nuclease-free water to a concentration of 0.6 μg μl^−1. Precision-bore glass capillary tubes (3.5-inch glass capillaries; Drummond Scientific Co.) were pulled on a vertical puller (P-87 Flaming/Brown micropipette puller, Sutter Instrument Co.), graduated, and placed on a microinjector (Nanoject II Auto-Nanoliter Injector, Drummond Scientific Co.). 50 nl of nuclease-free water alone (control oocytes) or 50 nl of 0.6 μg μl^−1 RNA were injected under stereomicroscopic control. Injected oocytes were incubated for 46–72 h at 18 °C with twice-daily buffer changes before usage in experiments.
Drug uptake assays were performed as described previously[21],[22],[24],[34]. […] The direction of radio-labeled drug transport is here from the mostly acidic extracellular solution (pH 4.5 or 6.0, as indicated) into the oocyte cytosol (pH ∼ 7.2), which corresponds to the efflux of drug from the acidic digestive vacuole (pH 5.2) into the parasite cytoplasm (pH 7.2). The topology of PfCRT in the oolemma is such that both the N- and C-terminus face the extracellular milieu[3],[22]. In the parasite, the N- and C-terminus face the lumen of the digestive vacuole. CQ uptake kinetics were performed by incubating oocytes in ND96 buffer adjusted to a pH of 4.5, 5.0, 5.5, or 6.0 and supplemented with 50 nM [^3H]CQ and one of 7 different CQ concentrations (10 µM, 50 µM, 100 µM, 200 µM, 300 µM, 400 µM, 500 µM CQ). The reaction was stopped at the 60 min time point, which is in the linear uptake range[22],[34] (Supplementary Fig. 17). For determination of the amount of drug uptake for each oocyte, the reaction medium was removed and the oocytes were washed three times with 2 ml of ice-cold ND96 buffer. Each oocyte was individually transferred to a scintillation vial containing 5% sodium dodecyl sulfate (200 μl) for lysis. The radioactivity of each sample was measured using a liquid scintillation analyzer Tri-Carb 4910 TR (PerkinElmer). Oocytes that were injected with water instead of RNA were analyzed in parallel, representing the uptake of a drug by diffusion and/or endogenous permeation pathways. The resulting value represents the “background“ level of drug accumulation in oocytes (in-depth discussion in[22]). […]

PfCRT variant N84A = experiment: CQ uptake assay, oocytes expressing N84A; assay type: cell-based, Plasmodium falciparum
Method: as §1, §2
Drug uptake assays were performed as described previously[21],[22],[24],[34]. […] The direction of radio-labeled drug transport is here from the mostly acidic extracellular solution (pH 4.5 or 6.0, as indicated) into the oocyte cytosol (pH ∼ 7.2), which corresponds to the efflux of drug from the acidic digestive vacuole (pH 5.2) into the parasite cytoplasm (pH 7.2). The topology of PfCRT in the oolemma is such that both the N- and C-terminus face the extracellular milieu[3],[22]. In the parasite, the N- and C-terminus face the lumen of the digestive vacuole. […] For determination of the amount of drug uptake for each oocyte, the reaction medium was removed and the oocytes were washed three times with 2 ml of ice-cold ND96 buffer. Each oocyte was individually transferred to a scintillation vial containing 5% sodium dodecyl sulfate (200 μl) for lysis. […] Oocytes that were injected with water instead of RNA were analyzed in parallel, representing the uptake of a drug by diffusion and/or endogenous permeation pathways. The resulting value represents the “background“ level of drug accumulation in oocytes (in-depth discussion in[22]). The specific PfCRT-mediated uptake was determined by subtracting the corresponding background value measured in water-injected oocytes from that of PfCRT-expressing oocytes. In all cases, at least three separate experiments were performed on oocytes from different frogs (biological replicate), and for each condition in an experiment, measurements were made from 10 oocytes per treatment. For pH 5.5, 6.0, and 6.5, ND96 was buffered with 5 mM MES/Tris base.

[1] = F322A, 50 µM CQ, 1 h, mean ± SEM
[2] = N84A, 50 µM CQ, 1 h, mean ± SEM

## CCN(CC)CCCC(C)Nc1ccnc2cc(Cl)ccc12 (stereo not drawn) [CQ, chloroquine]
PfCRT variant F322A; [1]
  Activity at pH 4.5: 0.72 ± 0.12 pmol h-1 oocyte-1
  Activity at pH 6.0: 1.05 ± 0.12 pmol h-1 oocyte-1
PfCRT variant F322A; F322A, CQ transport at pH 4.5 / pH 6.0
  R-value: 0.68 ± 0.04
PfCRT variant F322A; pH 4.5, single replicates, Fig 1d left
  F322A transport activity pH 4.5: 0.55 pmol oocyte-1 h-1 and 1.12 pmol oocyte-1 h-1 and 0.61 pmol oocyte-1 h-1 and 0.60 pmol oocyte-1 h-1
PfCRT variant F322A; pH 4.5 vs pH 6.0, Fig 1d left
  F322A R-value: 0.73 and 0.78 and 0.63 and 0.59
PfCRT variant F322A; pH 6.0, single replicates, Fig 1d left
  F322A transport activity pH 6.0: 0.75 pmol oocyte-1 h-1 and 1.44 pmol oocyte-1 h-1 and 0.97 pmol oocyte-1 h-1 and 1.02 pmol oocyte-1 h-1
PfCRT variant N84A; [2]
  Activity at pH 4.5: 1.41 ± 0.23 pmol h-1 oocyte-1
  Activity at pH 6.0: 3.24 ± 0.32 pmol h-1 oocyte-1
PfCRT variant N84A; N84A, CQ transport at pH 4.5 / pH 6.0
  R-value: 0.42 ± 0.04 and 0.42
PfCRT variant N84A; pH 4.5, individual replicates (Fig 6a)
  N84A transport activity pH 4.5: 1.45 pmol oocyte-1 h-1 and 0.73 pmol oocyte-1 h-1 and 1.46 pmol oocyte-1 h-1 and 2.00 pmol oocyte-1 h-1
PfCRT variant N84A; pH 6.0, individual replicates (Fig 6a)
  N84A transport activity pH 6.0: 3.16 pmol oocyte-1 h-1 and 3.18 pmol oocyte-1 h-1 and 4.19 pmol oocyte-1 h-1
PfCRT variant N84A; transport activity pH 4.5 relative to pH 6.0 (Fig 6a)
  N84A R-value: 0.46 and 0.30 and 0.48
